Assay results from patent US20260008818A1, “CYCLIC PEPTIDE OR SALT THEREOF, AND USES THEREOF” (FUJIFILM Corporation, priority 2023, published 2026).
Numbered stars: 1 amine (or outer) side, 2 acyl side, 3 side chain; on linkers, the order of the positions; unused ones are H or OH. Bridge positions count the residues as written; N and C are the ends. Square brackets hold non-standard residues; d marks the D form. Ends that are not written are not given here. I, II: the chains in the order shown. ξ: configuration not given here. ξY = NC(Cc1ccc(O)cc1)C(=O)O; ξR = N=C(N)NCCCC(N)C(=O)O; Dap = NC[C@H](N)C(=O)O; X1 = O=C(C[*:1])[*:2]; ξK = NCCCCC(N)C(=O)O; ξP = O=C(O)C1CCCN1; ξC = NC(CS)C(=O)O

Tests used:
[1] = tested on: hMSC-Human Mesenchymal Stem Cells; experiment: Mesenchymal stem cell (MSC) proliferation-promoting effect; type: cell-based; conditions: 0.001 to 3 nmol/L, bFGF-free custom culture medium; viable cells normalized to 1 nmol/L bFGF = 100, negative control = 0
Method: The mesenchymal stem cell (MSC) proliferation-promoting effect of the cyclic peptide complex was evaluated.
The MSC was activated and subcultured according to the recommended protocol of FUJIFILM Irvine Scientific, Inc. using hMSC-Human Mesenchymal Stem Cells (Lonza, PT-2501) and PRIME-XV MSC Expansion XSFM (FUJIFILM Irvine Scientific, Inc., 91149) as a culture medium. MSCs that had been subcultured 1 to 4 times were used for the evaluation.
The evaluation of the proliferation-promoting effect of MSC was performed by the following method. First, a culture medium (hereinafter, referred to as a custom culture medium) in which bFGF was removed from PRIME-XV MSC Expansion XSFM (FUJIFILM Irvine Scientific, Inc., 91149) was prepared. Next, Prime-XV Human Fibronectin (FUJIFILM Irvine Scientific, Inc., 31002) was dissolved in PBS (Fujifilm Wako Pure Chemical Corporation, 164-23551), 2 μg/cm^2 of the solution was added to a 96-well plate used for evaluation, and the 96-well plate was allowed to stand at room temperature for 3 hours to coat the 96-well plate with fibronectin. […] The number of viable cells was calculated from the imaging data and normalized by setting the number of viable cells in the well to which 1 nmol/L bFGF was added to 100, and setting the number of viable cells in the negative control well to 0.

[2] = tested on: hMSC-Human Mesenchymal Stem Cells; experiment: Effect of maintaining MSC undifferentiated potency (gene expression); type: cell-based; conditions: cyclic peptide complex 3 nmol/L or bFGF 1 nmol/L, normalized to 1 nmol/L bFGF = 1, bFGF compared with negative control
Method: The effect of maintaining mesenchymal stem cell (MSC) undifferentiated potency of the cyclic peptide complex was evaluated.
MSC was prepared in the same manner as in Example 7.
The evaluation of the effect of maintaining the MSC undifferentiated potency was performed by the following method. First, a culture medium (hereinafter, referred to as a custom culture medium) in which bFGF was removed from PRIME-XV MSC Expansion XSFM (FUJIFILM Irvine Scientific, Inc., 91149) was prepared. Next, Prime-XV Human Fibronectin (FUJIFILM Irvine Scientific, Inc., 31002) was dissolved in PBS (Fujifilm Wako Pure Chemical Corporation, 164-23551), 2 μg/cm^2 of the solution was added to a 12-well plate used for proliferation, and the 12-well plate was allowed to stand at room temperature for 3 hours to coat the 12-well plate with fibronectin. Thereafter, the MSCs subjected to the subculture were peeled using Tryple Express (Thermo, 12604-013), washed once with a custom culture medium, suspended in a custom culture medium in which a cyclic peptide complex or bFGF (R&D Systems, 3718-GMP) was diluted to final concentrations of 3 nmol/L and 1 nmol/L, and seeded on a 12-well plate coated with fibronectin. In this case, conditions in which the cyclic peptide complex and bFGF were not added as a negative control were prepared. After culturing at 37° C. (5% CO2) for 2 nights, the culture medium was replaced by removing the supernatant of the culture medium and adding the same amount of a culture medium prepared to have the same composition as the removed culture medium. After further culturing at 37° C. (5% CO2) for 2 nights, RNA was extracted using an RNeasy Plus Mini Kit (Qiagen, 74136) according to the manufacturer's protocol. […] The expression level of each gene was normalized by setting the expression level of the well to which 1 nmol/L bFGF was added to 1.

[3] = tested on: bovine myoblasts; experiment: Bovine cell (myoblast) proliferation-promoting effect; type: cell-based, Japanese Black cattle; conditions: 0.03 to 10 nmol/L, 4 days; viable cells normalized to 30 ng/mL bFGF = 100, negative control = 0
Method: The bovine cells (myoblasts) proliferation-promoting effect of the cyclic peptide complex was evaluated.
Bovine myoblasts were separated from bovine muscle tissue by the following method. First, muscle tissue of Japanese Black cattle was finely chopped in HBSS (−) (phenol red-free) (FUJIFILM Wako Pure Chemical Corporation, 085-09355), and then pronase from Streptomyces griseus (Sigma-Aldrich, 10165921001) was added thereto to a final concentration of 1 mg/mL, and the mixture was allowed to stand at 37° C. for 1 hour. After allowing to stand, HBSS containing 10% FBS was added thereto, and the cells were acquired by centrifugation. The acquired cells were suspended in D-MEM (high glucose) (containing L-glutamine and phenol red) (FUJIFILM Wako Pure Chemical Corporation, 044-29765) containing 10% final concentration of bovine serum and 30 ng/mL bFGF. Suspended cells were cultured in a culture flask coated with an iMatrix-511 solution (FUJIFILM Wako Pure Chemical Corporation, 381-07363) at 0.55 μg/cm^2. […]
The evaluation of the proliferation-promoting effect on bovine myoblasts was performed by the following method. […] The number of viable cells was calculated from the imaging data and normalized by setting the number of viable cells in the well to which 30 ng/mL bFGF was added to 100, and setting the number of viable cells in the negative control well to 0.

Substance: I: H[ξC]SYERLEFHGHEAPFRV[ξK]V[Dap]-NH2 / II: HCS[ξY]E[ξR]LQFHGHEA[ξP]FRVK[dV] (linker I:2-I:19, II:2-II:19 via X1; amide I:21-II:C) [SEQ ID NO: 393, (H-(C)-SYERLQFHGHEAPFRV-(K(acetyl))-V)2-Dap]
- MSC proliferation action [1]: the same degree of MSC proliferation action as bFGF
- expression level of Sox2 [2]: the same degree of a gene expression level as bFGF
- bovine myoblast proliferation action [3]: about 80%
